Assay results reported in ChEMBL document CHEMBL1158143, “Zinagrandinolides A-C, cytotoxic delta-elemanolide-type sesquiterpene lactones from Zinnia grandiflora” (J Nat Prod, 2006).

Legend:
NCI-H460 = experiment: Cytotoxicity against human NCI-H460 cells after 24 hrs by MTT assay; format: functional, cell-based; conditions: NCI-H460, 24 h
[1] = Cytotoxicity against human WI38 cells after 24 hrs by MTT assay; format: cell-based; conditions: WI-38, 24 h
MCF7 = experiment: Cytotoxicity against human MCF7 cells after 24 hrs by MTT assay; format: functional, cell-based; conditions: MCF7, 24 h
SF-268 = experiment: Cytotoxicity against human SF-268 cells after 24 hrs by MTT assay; format: functional, cell-based; conditions: SF-268, 24 h
MIA PaCa-2 = experiment: Cytotoxicity against human MIA PaCa2 cells after 24 hrs by MTT assay; format: functional, cell-based; conditions: MIA PaCa-2, 24 h

Structure (SMILES)	IC50 (NCI-H460) [nM]	IC50 [1] [nM]	IC50 (MCF7) [nM]	IC50 (SF-268) [nM]	IC50 (MIA PaCa-2) [nM]
COc1cccc2c1C(=O)c1c(O)c3c(c(O)c1C2=O)C[C@@](O)(C(=O)CO)C[C@@H]3O[C@H]1C[C@H](N)[C@H](O)[C@H](C)O1 [DOXORUBICIN]	10	300			
C=C1C(=O)O[C@H]2[C@@H](OC(C)=O)[C@@H]1[C@H](OC(=O)C(C)(C)O)[C@H](C(=C)C=O)[C@@]2(C)[C@@H]1CO1 (relative stereo)	970	760	520	640	440
C=C[C@@]1(C)[C@H]2OC(=O)C(=C)[C@H]([C@@H]2OC(C)=O)[C@H](OC(=O)C(C)(O)CC)[C@@H]1C(=C)C=O (relative stereo) [ZINAGRANDINOLIDE B]	250	430	380	300	210
C=C1C(=O)O[C@H]2[C@@H](OC(C)=O)[C@@H]1[C@H](OC(=O)C(C)(O)CC)[C@H](C(=C)C=O)[C@@]2(C)[C@@H]1CO1 (relative stereo) [ZINAGRANDINOLIDE A]	450	690	510	290	220
C=C[C@@]1(C)[C@H]2OC(=O)C(=C)[C@H]([C@@H]2OC(C)=O)[C@H](OC(=O)C(C)(C)O)[C@@H]1C(=C)C=O (relative stereo) [ZINAGRANDINOLIDE C]	270	640	550	440	320
